Where no end group is shown, it is not given here.
Tests used:
[1] = tested on: myotubes obtained from human KM109 myoblast cultures; test: Uptake of FAM-labeled peptides and conjugate into cultured myotubes (fluorescence microscopy); type: cell-based; details: tested on human and mouse myotubes, no fixation
Protocol: Two of the peptides that occurred frequently after selection on both mouse and human myotubes, SPNSIGT and QLFTSAS, were synthesized with a fluorescent label (FAM) and tested for uptake into human and mouse differentiated muscle cells (myotubes). Myotubes were obtained from confluent human KM109 myoblast cultures by 7-14 days of serum deprivation. The culture was subsequently incubated with FAM-labeled peptide and photographed with an inverted fluorescence microscope, without previous fixation.
Peptide QLFTSAS was synthesized with a fluorescent label (FAM) and subsequently conjugated to a 21-mer 2′O-methyl phosphorothioate anti-sense oligonucleotide (AON). Myotubes were obtained from confluent human KM109 myoblast cultures by 7-14 days of serum deprivation. The culture was subsequently incubated with the FAM-labeled conjugate and photographed with an inverted fluorescence microscope, without previous fixation.
Three of the peptides that were found after four rounds of in vivo selection, were synthesized with a fluorescent label (FAM) and tested in cell culture for uptake on human myotubes as described in Example 1.

[2] = tested on: gastrocnemius (calf muscle) of mdx mice; details: intramuscular, 2.5-5 nmol, cross-sections after three days
Protocol: FAM-labeled peptides QLFTSAS (SEQ ID NO.: 3) (5 nmol injected), LYQDYSL (SEQ ID NO.: 85) (2.5 nmol injected) and LGAQSNF (SEQ ID NO.: 100) (2.5 nmol injected) were analysed. After three days the mice were sacrificed and the muscles were snap frozen. Cross-sections were cut, fixed with acetone and mounted for analysis with a fluorescence microscope. Cross-sections were cut and photographed with a fluorescence microscope (CCD camera).

[3] = tested on: gastrocnemius muscle of a healthy mouse; details: intramuscular, 5 nmol, after 3 days
Protocol: Uptake of the FAM-labeled peptides QLFTSAS (SEQ ID NO.: 3) and LGAQSNF (SEQ ID NO.: 100) was also tested on the muscle of a healthy mouse. Of each peptide 5 nmol was injected into the gastrocnemius muscle. After 3 days the mice were sacrified and the amount of staining was assessed. Samples were photographed with an inverted fluorescence microscope.

mdx mouse = test: In vivo targeting after subcutaneous injection of Cy5-labeled peptide (fluorescence imaging); details: 71 nmol subcutaneously on the back, 48 hours
Protocol: Peptide LGAQSNF was synthesized with the fluorescent label Cy5. This label can be detected with a high sensitivity by a fluorescence imaging system (NightOWL, Berthold Technologies) after systemic (intravenous or subcutaneous) injection into a mouse. This enables monitoring of the distribution across the different organs of a living mouse after injection of the compound. Of this peptide, 71 nmol was injected subcutaneously on the back of an mdx mouse and after 48 hours a picture was taken with the imaging system.
The mouse is lying on its back, and the back paws and an area on the abdomen were first shaved because the hairs on the skin impair detection of the signal. A clear signal could be detected in the back and front paws and in the tail. The signal in the shaved area on the abdomen is likely from abdominal muscle.

| Substance | uptake of FAM-labeled peptide into cultured myotubes [1] | uptake of FAM-labeled peptide into muscle fibers [2] | uptake of FAM-labeled peptide into myofibers of the injected muscle [3] | distribution of Cy5-labeled peptide (mdx mouse) |
| --- | --- | --- | --- | --- |
| QLFTSAS (also: FAM label) | significant uptake | taken up into a large area of muscle fibers and were still visible after 3 days | significant area of uptake |  |
| LYQDYSL |  | taken up into a large area of muscle fibers and were still visible after 3 days |  |  |
| SPNSIGT (also: FAM label) [7-mer peptide from in vitro phage selection on myotubes; tested with FAM label] | significant uptake |  |  |  |
| LGAQSNF |  | taken up into a large area of muscle fibers and were still visible after 3 days | significant area of uptake |  |
| Cy5-labeled peptide LGAQSNF: Peptide LGAQSNF synthesized with the fluorescent label Cy5 (also: Cy5 label) |  |  |  | taken up by the abdominal muscle and by muscles in the hindlegs, paws and tail |
